Reference: patent publication US11746125B2, “Biomimetic peptides derived from biological source and their uses in retarding aging and improving skin” (TCI CO., LTD., priority 2019, dated 2023)

Tested on: human fibroblast cell line (CCD-966SK)
Assay: Assay in increasing expression of genes: human fibroblast cells cultured with peptides, RNA detected by nCounter Analysis System
Type: cell-based
Procedure: A human fibroblast cell line (CCD-966SK) was used to assay gene expression affected by the peptides of the present disclosure. 1×10^5 of fibroblast cells were seeded and cultured in a 6-well plate containing 2 ml of X-VIVO™ 10 medium. […] The cells cultured with the medium only for 6 or 24 hours were used as control.
The resulting cultured cells were washed with PBS and lysed by adding a lysis reagent. The resulting cell lysis solutions were extracted by RNA Extraction Kit (GENEzol™ 96 Well TriRNA Pure Kit, Geneaid) to collect the RNAs in the cells. The expression of genes was detected by the nCounter Analysis System (NanoString Technologies, Inc.)

[1] = 12.5 μg/ml, 24 hours, vs control
[2] = peptides 12.5 and 25 μg/ml, 6 or 24 hours

KIFKF [Chiro-5, synthetic 5-mer peptide KIFKF]
increases: expression of collagen I gene [2]
inhibiting: expression of MMP1 (25 μg/ml, vs control) | expression of genes relating to collagen breakdown (MMP-1) [2]
increase: expression of anti-aging genes (NADSYN, MRPS5, Ub1-5 and/or FOXO) [1] | expression of collagen I gene (COL1A2) (25 μg/ml, vs control) | expression of anti-aging genes (NADSYN, MRPS5, Ub1-5 and/or FOXO) [2]

LKSGR [Latrol-5, synthetic 5-mer peptide LKSGR]
increase: expression of telomerase genes (TERC) (24 hours, vs control) | expression of DNA repair genes (UNG, MSH6, XRCCS and/or MSH6) [2] | expression of anti-aging genes (NADSYN, Atg1, MRPS5, CCT2 and/or CCT8) [2] | expression of telomerase genes (TERC) [2]
inhibiting: expression of genes relating to collagen breakdown (MMP-1) (25 μg/ml, 6 hours, vs control)
increases: expression of anti-aging genes (NADSYN, CCT2 and CCT8) (25 μg/ml, 6 hours, vs control) | expression of collagen I gene (COL1A2) (25 μg/ml, 6 hours, vs control) | expression of DNA repair genes (XRCC5 and/or MSH6) (6 hours, vs control)

PRPIK [Hapa-5, synthetic 5-mer peptide PRPIK]
inhibits: expression of genes relating to collagen breakdown (MMP-1) (25 μg/ml, 24 hours, vs control) | expression of genes relating to collagen breakdown (MMP-1) [2]
increase: expression of DNA repair genes (ERCC1) [1] | expression of telomerase genes (TERC) [1] | expression of anti-aging genes (Atg1, Ub1-5 and FOXO) (25 μg/ml, 24 hours, vs control) | expression of DNA repair genes (ERCC1) [2] | expression of TIMP1 [2] | expression of anti-aging genes (Atg1, Ubl-5 and FOXO) [2] | expression of collagen IV gene [2] | expression of elastin genes [2] | expression of moisture-retention related genes (ELG-F and GBA) [2] | expression of telomerase genes (TERC) [2] | expressions of moisture-retention related genes (ELG-F and GBA) (vs control, concentration not given)
increases: expression of TIMP1 (6 hours, vs control) | expression of collagen IV genes (COL4A1) (6 hours, vs control) | expression of elastin genes (ELN) (6 hours, vs control)

QKRRTCK [Heter-7, synthetic 7-mer peptide QKRRTCK]
increase: expression of anti-aging genes (Atg1 and Ub15) (25 μg/ml, 12 hours, vs control) | expression of telomerase gene (TERC) (25 μg/ml, 12 hours, vs control) | expression of DNA repair genes (ERCC1 and XRCC5) (25 μg/ml, vs control) | expression of anti-oxidation gene SOD2 (25 μg/ml, vs control)
increases: expression of collagen I gene (12.5 μg/ml, vs control) | expression of TIMP1 gene (25 μg/ml, 12 hours, vs control) | expression of DNA repair genes (ERCC1 and XRCCS) (peptides 12.5 and 25 μg/ml) | expression of anti-aging genes (Atg1 and Ubl5) (peptides 12.5 and 25 μg/ml) | expression of anti-oxidation gene SOD2 (peptides 12.5 and 25 μg/ml) | expression of TIMP1 [2] | expression of collagen I gene [2] | expression of telomerase genes (TERC) [2]
inhibiting: MMP1 (2.5 μg/ml, 12 hours, vs control) | expression of genes relating to collagen breakdown (MMP-1) [2]

QRIKYIKP [Chiro-8, synthetic 8-mer peptide QRIKYIKP]
increase: expression of moisture-retention related genes (SMPD1) (12.5 μg/ml and 25 μg/ml, 24 hours, vs control) | expression of anti-aging genes (NADSYN, MRPS5, Ub1-5 and/or FOXO) [1] | expression of anti-aging genes (NADSYN, MRPS5, Ub1-5 and/or FOXO) [2]
inhibits: expression of anti-inflammatory factor IL-6 (24 hours) | expression of anti-inflammatory factor IL-6 [2]
inhibiting: expression of MMP1 (24 hours, vs control) | expression of genes relating to collagen breakdown (MMP-1) [2]
increases: expression of collagen I gene (COLA1) (12.5 μg/ml, vs control) | expression of collagen IV gene (COL4A1) (12.5 μg/ml, vs control) | expression of elastin gene (ELN) (12.5 μg/ml, vs control) | expression of collagen I gene [2] | expression of elastin genes [2] | expression of moisture-retention related genes (SMPD1) [2]

TKSGKF [Latrol-6, synthetic 6-mer peptide TKSGKF]
increase: expression of telomerase genes (TERC) (6 hours, vs control) | expression of DNA repair genes (UNG, MSH6, XRCCS and/or MSH6) [2] | expression of anti-aging genes (NADSYN, Atg1, MRPS5, CCT2 and/or CCT8) [2] | expression of telomerase genes (TERC) [2]
inhibiting: expression of genes relating to collagen breakdown (MMP-1) [2]
increases: expression of SMPD1 (moisture-retention related gene) and/or HAS2 (25 μg/ml, 6 hours, vs control) | expression of anti-aging genes (NADSYN, Atgl, MRPS5) (25 μg/ml, 24 hours, vs control) | expression of collagen I gene (COL1A1) (25 μg/ml, 24 hours, vs control) | expression of collagen IV gene (COL4A1) (25 μg/ml, 24 hours, vs control) | expression of elastin gene (ELN) (25 μg/ml, 24 hours, vs control) | expression of DNA repair genes (UNG and MSH6) (6 hours or 24 hours, vs control) | expression of SMPD1 (moisture-retention related genes) and/or HSAS2 [2] | expression of collagen I gene [2] | expression of collagen IV gene [2] | expression of elastin genes [2] | expression of collagen I gene (text summary referring to FIG. 12 (A))

VKNAKY [Hapa-6, synthetic 6-mer peptide VKNAKY]
inhibits: expression of genes relating to collagen breakdown (MMP-1) [1] | expression of genes relating to collagen breakdown (MMP-1) [2]
increase: expression of anti-aging genes (Atg1, Ub1-5 and FOXO) (12.5 μg/ml, 6 hours, vs control) | expressions of moisture-retention related genes (ELG-F and GBA) (25 μg/ml, vs control) | expression of DNA repair genes (ERCC1) (12.5 and 25 μg/ml, 6 hours, vs control) | expression of telomerase genes (TERC) (12.5 and 25 μg/ml, 24 hours, vs control) | expression of TIMP1 (6 hours, vs control) | expression of elastin genes (ELN) (6 hours, vs control) | expression of collagen I genes (COL1A2) (24 hours, vs control) | expression of DNA repair genes (ERCC1) [2] | expression of TIMP1 [2] | expression of anti-aging genes (Atg1, Ubl-5 and FOXO) [2] | expression of collagen I gene [2] | expression of elastin genes [2] | expression of moisture-retention related genes (ELG-F and GBA) [2] | expression of telomerase genes (TERC) [2]
